Laboratory results: patent US6037351A, “Method of inhibiting hepatitis B virus” (priority 1996, dated 2000)

Experiments:
HBs proteins = assay: Western blot of all HBs proteins in virions, filaments and spheres fractions; type: cell-based, HBV; settings: medium of NBDNJ treated cultures, FIGS. 5B and 5C
Procedure: Polyethylene glycol (PEG) precipitates of culture medium (FIG. 5A) or partly purified virions, HBs filaments and spheres from untreated (FIG. 5B) and NBDNJ treated (FIG. 5C) cultures were resolved by SDS-PAGE (13.5% acrylamide), transferred to immobilin paper and incubated with PreS1 and PreS2 specific monoclonal antibody.
Samples were dissolved in loading buffer, resolved by electrophoresis through 13.5% SDS polyacrylamide gels (SDS-PAGE) and transferred to PVDF (Millipore) membranes and blocked with 5% powdered milk, as in Gultekin and Heerman, Analytical Biochem. 172, 320-329 (1989). After incubation with primary antibody overnight at room temperature in 1% bovine serum albumin (BSA) in TNE and second antibody (peroxidase conjugated goat anti-mouse IgG serum) for 1 hour in TNE at room temperature, membranes were developed in peroxide-diaminobenzidine (Sigma) PBS, as described in the manufacturer's instructions.
The ELISA results were confirmed by Western blot analysis of fractions from the sucrose gradient containing either intact virus, filaments or spheres (FIGS. 5B, from untreated cultures, and 5C, from NBDNJ treated cultures). […]
Fractions distal to the virion containing fractions (near the bottom of the gradient) were resolved in lane 1 to show specificity of the antibody. […] The images shown in FIGS. 5B and 5C) were quantified by densitometry.

[1] = system: Human Immunodeficiency Virus (HIV); settings: cited from earlier work
LHBs (PreS1) antigen = assay: ELISA of LHBs (PreS1) antigen in unfractionated culture medium of 2.2.15 cells; type: cell-based, HBV
Procedure: FIG. 3D: Histogram of the area under the averaged peaks of the densitometric tracing of the gel in FIG. 3B. […] Equal volumes of the indicated samples were tested for HBV envelope antigens using the enzyme-linked imminosorbent assay (ELISA) method. Samples of unfractionated medium (FIGS. 4A, 4B and 4C) or partially purified virus (FIGS. 4D, 4E and 4F) from 3-day cultures were tested for HBV SHBs ("S) (FIGS. 4A and 4D), LHBs: "PreS1" (FIGS. 4B and 4E) or MHBs "PreS2" (FIGS. 4C and 4F) epitopes. Cultures were maintained in the indicated concentrations of NBDNJ, expressed in millimolar units and shown along the X axis.
Detection of HBV proteins by the Enzyme Linked Immunoabsorbant assay (ELISA).
Monoclonal antibodies used herein are well-known and are described by Heerman et al., J. Virol. […]
Bound antigen was detected by incubation with peroxidase conjugated goat anti-HBs antibody (Behring) followed by development in orthophenylenediamine (0.33 mg/ml PBS-peroxide solution). Optical densities were read in a Behring plate reader. Tests on purified virus and total medium were conducted over a series of sample dilutions to insure proper quantification.
To distinguish between these possibilities, the amount and nature of envelope antigens in the culture medium was determined by both ELISA and Western analysis. […]

α-glucosidase I = settings: N-linked oligosaccharide processing enzyme; cited from earlier work
hepatitis B virus (HBV) = assay: Secretion of HBV particles from HepG 2.2.15 and HBV infected HepG2 cells; type: cell-based, HBV in human hepatoma cells
[2] = Viability of 2.2.15 cells (propidium iodide FACS, 35S methionine incorporation); type: cell-based; settings: human, 1000 μg/ml, six days, read-out: cells as viable as untreated controls
Procedure: Cell viability was measured by flow cytometry using a FACscan cytometer, Becton Dickinson, Sunnyvale, Calif., USA, after incubation with propidium iodide, as in Platt and Jacob, Eur. J. Biochem. 208, 187-193 (1992).
The decrease was not due to toxicity of NBDNJ, since 90% of the cells maintained in 1000 μgs/ml NBDNJ for six days were as viable as untreated controls, as determined by FACs analysis of propidium iodide stained cells and ^[35] -S methionine incorporation into proteins.

HIV = settings: read-out: EC50 for inhibition of HIV replication; cited from earlier work
[3] = stably transfected HepG 2.2.15 cells and HBV infected HepG2 cells

SMILES: CCCCN1C[C@H](O)[C@@H](O)[C@H](O)[C@H]1CO [NBDNJ, N-butyl-1,5-dideoxy-1,5-imino-D-glucitol]
- amount of all HBs proteins in virions, filaments and spheres (HBs proteins): decrease in the amount of all HBs proteins
- formation of cytotoxic HIV in vitro (in words) [1]: suppress formation of cytotoxic Human Immunodeficiency Virus (HIV) in vitro
- effect upon total amount of LHBs (PreS1) antigen in medium (LHBs (PreS1) antigen): no significant effect
- inhibition of α-glucosidase I (in words) (α-glucosidase I): potent inhibitor
- sensitivity of HBV virions and particles containing LHBs and MHBs vs SHBs enriched particles (hepatitis B virus (HBV); relative to small SHBs enriched particles): more sensitive
- intracellular retention of HBV DNA (in words) (hepatitis B virus (HBV); [3]): cause intracellular retention of HBV DNA
- secretion of HBV particles (in words) (hepatitis B virus (HBV); [3]): suppress the secretion of HBV particles
- viability at 144 h [2]: 90%
- EC50 (HIV): 43 µM
